Biological target: T1, T. congolense sialidase (EC 3.2.1.18)
T1 construct: native bloodstream-form enzyme, isolated and partially purified on a DEAE cellulose column
Test: enzyme inhibition kinetics (fetuin substrate, thiobarbituric acid assay, double reciprocal plot) with partially purified enzyme
Assay type: biochemical, Trypanosoma congolense

Oc1cc(O)cc(O)c1 [phloroglucinol]
Ki: 0.181 µM

Source: paper PMC8781988, “Phloroglucinol as a Potential Candidate against Trypanosoma congolense Infection: Insights from In Vivo, In Vitro, Molecular Docking and Molecular Dynamic Simulation Analyses” (Molecules, 2022)
